According to patent US11485701B2, “Insect repellent compounds and compositions, and methods thereof” (Iowa State University Research Foundation, Inc., priority 2016, dated 2022):

Assays:
Format in all cases: in vivo
[1] = tested on: female Aedes aegypti (Orlando strain, 1952); assay: Minimum effective dosage testing, human skin (treated cloth patch); details: for Minimum Effective Dosage, Subject 3 / Minimum Effective Dosage, Subject 2 / Minimum Effective Dosage, Subject 1: treated cloth patch, 1 min test, high dose 1.5 mg/cm^2; for Proportion to DEET: average MED relative to DEET; for Minimum Effective Dosage, Average: mean across subjects
Description: The test mosquitoes were female Aedes aegypti (Orlando strain, 1952) from the colony maintained at United States Department of Agriculture-Agricultural Research Service-Center for Medical, Agricultural and Veterinary Entomology (USDA-ARS-CMAVE) in Gainesville, Fla. Pupae were obtained from the colony and newly emerged mosquitoes were maintained on 10% sugar water and kept in laboratory cages at an ambient temperature of 28±1° C. and RH of 35-60%. Host seeking behavior was pre-selected in nulliparous female mosquitoes aged 6-10 days, indicated by flight upwind towards a potential host, from stock cages using a hand-draw box and trapped in a collection trap.
After 500 (±10%) females were collected in the trap, they were transferred to a test cage (approximately 59,000 cm^3 with dimensions 45×37.5×35 cm) and allowed to acclimatize for 17.5 (±2.5) min before testing was initiated. Just prior to the experiment, the pieces of treated cloth are removed from the vials and stapled onto card stock tabs (5×3 cm). Each piece of the cards and the assembly were hung on a drying rack using masking tape for 3-5 min. Participants in the study used latex gloves to pull a nylon stocking over their arm. A Velcro™-sealed vinyl sleeve was then placed over the forearm. […] The purpose of the nylon stocking was to produce a barrier between the dried cloth and the skin, thereby avoiding direct contact of chemical to skin. The dried cloth assembly was affixed over the opening in the sleeve and held in place with masking tape. Participants then inserted their arm with the sleeve and patch into a screened cage that contained female Ae. Aegypti mosquitoes. Tests were conducted on each control or treated patch for 1 min. A control patch (acetone solvent only, then dried) was tested prior to the start of experiments and evaluation of the same untreated control patch after every 10 tests. If 5 landings were not received on the control patch in 30 s, then tests were discontinued for 60 min. At the conclusion of testing the control patch was tested again. If five landings were not received within 30 s, the data for the replicate was discarded. When testing a patch treated with a candidate repellent, if approximately 1% or 5 mosquito bites were received during this one minute test, this compound was considered to have failed, i.e., was not repellent at that concentration. If a treated cloth patch received 0-4 bites within a minute, then it was considered as passed, i.e., repellent at that concentration of the test compound. The median concentration patch was tested in the first round and treated patches were then tested successively at higher or lower concentrations depending upon whether the previous patch failed or passed, respectively.
The time interval between each tested patch was <90 seconds until 10 successive tests had been conducted. If appreciable, mortality had occurred during testing, the number of knocked down mosquitoes are estimated and additional female mosquitoes are added to the cage to keep the available mosquitoes at approximately 500. The estimate of the MED was the lowest concentration that passed for each candidate. Observed MED values for each candidate compound were averaged across participants and reported as a mean MED±standard error.

[2] = tested on: Northern house mosquitoes (Culex pipiens); assay: Short-term spatial repellency, static air repellency chamber; details: for pest or weed control at 0.5 %: Culex pipiens
Method in brief: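 Adult females 5-7 days post-emergence, ~20 per chamber, exposed in a 9×60 cm glass tube to filter paper treated with compound in acetone, the other end untreated. Distribution scored at 15-150 min as % spatial repellency; acetone controls, four replicates.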

[3] = tested on: Northern house mosquitoes (Culex pipiens); assay: Long-term spatial repellency, static air repellency chamber, filter papers air-dried 5 hours; details: air-dried 5 hours; for pest or weed control at 0.5 %: Culex pipiens
Description: (§1) Northern house mosquitoes (Culex pipiens), a primary carrier of West Nile virus in eastern North America, were obtained from an established colony in the Medical Entomology Laboratory in the Department of Entomology at Iowa State University of Science and Technology, Ames Iowa. Mosquito rearing was performed by established protocols that are maintained by the Medical Entomology Laboratory. Repellency bioassays were performed with adult female mosquitoes that were 5-7 days post-emergent. […] Mosquitoes, prior to testing, were held at 27° C., 80% relative humidity, and on a 16:8 hr light:dark photoperiod.
Repellency bioassays were performed using a static air repellency chamber, which has been described in various publications by the Pesticide Toxicology Laboratory at Iowa State University of Science and Technology, Ames, Iowa Briefly, a 9-cm×60-cm glass tube was used to monitor the distribution of mosquitoes at 15 min, 30 min, 60 min, 90 min, 120 min, and 150 min after introducing mosquitoes into the static air repellency chamber. Treated filter papers were treated with 1 mL of 0.5% solution in acetone of the terpenoid analogs created in the lab and were exposed to ambient air for 5 hours before they were introduced into the spatial chamber for testing. This is a slight modification of the method described in Example 2, so as to evaluate the residual repellent character of these compounds on a treated surface after 5 hours. One end of the spatial chamber contained a treated filter paper, whereas the other (untreated) end of the spatial chamber was not treated with compound. Controls contained filter papers treated with acetone, the solvent used to make the 0.5% solutions. Each end of the repellency chamber was secured with a 100-mm Petri dish using celluloid tape. After securing the petri dishes with corresponding treated or untreated filter papers to the spatial chamber, mosquitoes were anesthetized with carbon dioxide, and approximately 20 female mosquitoes were placed into each repellency chamber for one replicate. The opening of the spatial repellency chamber was secured with celluloid tape to prevent their escape. Chambers were oriented in opposite directions from the previous replicate to account for any directional effect. Four replicates were performed for data analysis for both the control and treatment groups.
Data for spatial repellency, the percentage repellency, is reported at each of the respective time points in the figures and tables mentioned below in this disclosure. The percentage spatial repellency is the examination of the distribution of mosquitoes and is calculated using the following equation: […]

[4] = tested on: Northern house mosquitoes (Culex pipiens); assay: Contact irritancy assay (percent escape from treated chamber); details: organza netting treated with 0.5% solution; 10 min; FIG. 14
Description: as §1
Organza were cut to approximately 11.5 cm×8 cm to wrap around the inside of the contact irritancy chamber. This piece of organza was treated with 1.5 mL of 0.5% or 0.05% solution of test compound in acetone. This organza was allowed to air-dry for 15 minutes before introducing them into the chamber. Organza sheets were draped around the inside wall of the metallic chamber and fastened to the walls of the chamber with small magnets. […] After ten minutes, the butterfly valve was once again closed and the number of mosquitoes was counted in the clear “counting” chamber. […]

[5] = 0.25 h, filter paper, 1 mL of 0.5% solution in acetone, air-dried 15 min, 15 min after introduction, read-out: Short-term Percentage repellency 15 min
[6] = 1.5 h, filter paper, 1 mL of 0.5% solution in acetone, air-dried 15 min, 90 min, read-out: Short-term Percentage repellency 90 min
[7] = 2.5 h, filter paper, 1 mL of 0.5% solution in acetone, air-dried 15 min, 150 min, read-out: Short-term Percentage repellency 150 min
[8] = 0.25 h, 1 mL of 0.5% solution in acetone, 15 min, read-out: Long-term Percentage repellency 15 min
[9] = 1.5 h, 1 mL of 0.5% solution in acetone, 90 min, read-out: Long-term Percentage repellency 90 min
[10] = 2.5 h, 1 mL of 0.5% solution in acetone, 150 min, read-out: Long-term Percentage repellency 150 min

SMILES | Minimum Effective Dosage, Subject 3 [1] | Proportion to DEET [1] | Minimum Effective Dosage, Average [1] | Minimum Effective Dosage, Subject 2 [1] | Minimum Effective Dosage, Subject 1 [1] | also measured
O=C(C=Cc1ccccc1)OCCO [2-hydroxyethyl cinnamate] | 0.094 mg/cm^2 |  |  |  |  | 
CC(O)COC(=O)C=Cc1ccccc1 (stereo not drawn) [2-hydroxypropyl cinnamate] | 0.375 mg/cm^2 | 19.737 | 0.375 mg/cm^2 | 0.375 mg/cm^2 |  | 
O=C(C=Cc1ccccc1)OCCCO [3-hydroxypropyl cinnamate] | 0.750 mg/cm^2 | 52.632 | 1.000 mg/cm^2 | 1.500 mg/cm^2 | 0.750 mg/cm^2 | 
CC(C)=CCC/C(C)=C/C(=O)OCCCO [3-hydroxypropyl geranate] | 0.094 mg/cm^2 | 6.579 | 0.125 mg/cm^2 | 0.094 mg/cm^2 | 0.187 mg/cm^2 | 
CC(C)=CCC/C(C)=C/C(=O)OCCO [2-hydroxyethyl geranate] | 0.187 mg/cm^2 | 13.140 | 0.250 mg/cm^2 | 0.375 mg/cm^2 | 0.187 mg/cm^2 | 
CC(C)=CCCC(C)CCOC(=O)C1CC1 (stereo not drawn) [Compound 1035A, citronellyl cyclopropanecarboxylate] |  |  |  |  |  | pest or weed control at 0.5 % [2, 5]: 22.5%; pest or weed control at 0.5 % [2, 6]: 92.5%; pest or weed control at 0.5 % [2, 7]: 90%; Short-term repellency at low concentration, in words ([2]; filter paper treated with 0.1%, FIG. 6): significant levels of repellency; pest or weed control at 0.5 % [3, 8]: 70%; pest or weed control at 0.5 % [3, 9]: 80%; pest or weed control at 0.5 % [3, 10]: 62.5%; Contact irritancy, percentage escape [4]: 80%
CC(C)=CCC/C(C)=C/C(=O)OCC(C)O (stereo not drawn) [2-hydroxypropyl geranate] | 0.047 mg/cm^2 | 2.474 | 0.047 mg/cm^2 | 0.047 mg/cm^2 | 0.047 mg/cm^2 | 
CC(C)=CCCC(C)CC(=O)OCCCO (stereo not drawn) [3-hydroxypropyl citronellate] | 0.023 mg/cm^2 | 3.702 | 0.070 mg/cm^2 | 0.094 mg/cm^2 | 0.094 mg/cm^2 | 
CCN(CC)C(=O)c1cccc(C)c1 [DEET, N,N-diethyl-meta-toluaminde, reference compound] | 0.011 mg/cm^2 | 1.000 | 0.019 mg/cm^2 | 0.023 mg/cm^2 | 0.023 mg/cm^2 | Short-term percentage repellency 30 min ([2]; 1 mL of 0.5% solution in acetone, 30 minutes): 53.3%; Short-term Percentage repellency 15 min ([2]; filter paper, 1 mL of 0.5% solution in acetone, air-dried 15 min, 15 min after introduction): 20%±15.3; Long-term percentage repellency 30 min ([3]; 0.5% solution, 30 minutes): 22.5%; Long-term Percentage repellency 15 min ([3]; 1 mL of 0.5% solution in acetone, 15 min): 32.5%±14.4
CC1CCC(C(C)(C)O)C(O)C1 (stereo not drawn) [p-menthane-3,8-diol, reference compound] |  |  |  |  |  | pest or weed control at 0.5 % [2, 5]: 12.5%; pest or weed control at 0.5 % [2, 6]: 12.5%; pest or weed control at 0.5 % [2, 7]: 20%; pest or weed control at 0.5 % [3, 8]: 7.5%; pest or weed control at 0.5 % [3, 9]: 5%; pest or weed control at 0.5 % [3, 10]: 5%; Contact irritancy, percentage escape [4]: approximately 65%
